Laboratory results published in PubChem BioAssay (NCI).
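Abbreviation: GI50, concentration required for 50% inhibition of growth. TGI: total growth inhibition.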

Experiments:
Experiment in all cases: inhibition of tumour cell growth, NCI panel, 384-well format
OVCAR-3 ovarian = test system: OVCAR-3 ovarian
T-47D breast = test system: T-47D breast
SF-295 CNS = test system: SF-295 CNS
MDA-MB-435 melanoma = test system: MDA-MB-435 melanoma
K-562 leukemia = test system: K-562 leukemia
OVCAR-5 ovarian = test system: OVCAR-5 ovarian
MCF7 breast = test system: MCF7 breast
UACC-62 melanoma = test system: UACC-62 melanoma
COLO 205 colon = test system: COLO 205 colon
IGROV1 ovarian = test system: IGROV1 ovarian
HL-60(TB) leukemia = test system: HL-60(TB) leukemia
HT29 colon = test system: HT29 colon
HOP-62 NSCLC = test system: HOP-62 NSCLC
SNB-75 CNS = test system: SNB-75 CNS
HCC-2998 colon = test system: HCC-2998 colon
ACHN renal = test system: ACHN renal
UO-31 renal = test system: UO-31 renal
A498 renal = test system: A498 renal
NCI-H226 lung = test system: NCI-H226 lung
RPMI-8226 leukemia = test system: RPMI-8226 leukemia
M14 melanoma = test system: M14 melanoma
MDA-MB-468 breast = test system: MDA-MB-468 breast
MDA-MB-231 breast = test system: MDA-MB-231 breast
LOX IMVI melanoma = test system: LOX IMVI melanoma
NCI-H322M lung = test system: NCI-H322M lung
786-0 renal = test system: 786-0 renal
SF-539 CNS = test system: SF-539 CNS
RXF 393 renal = test system: RXF 393 renal
TK-10 renal = test system: TK-10 renal
SR leukemia = test system: SR leukemia
SK-MEL-5 melanoma = test system: SK-MEL-5 melanoma
CCRF-CEM leukemia = test system: CCRF-CEM leukemia
A549 NSCLC = test system: A549 NSCLC
MOLT-4 leukemia = test system: MOLT-4 leukemia
HOP-92 NSCLC = test system: HOP-92 NSCLC
SNB-19 CNS = test system: SNB-19 CNS
NCI/ADR-RES ovarian = test system: NCI/ADR-RES ovarian
DU-145 prostate = test system: DU-145 prostate
NCI-H23 lung = test system: NCI-H23 lung
HS 578T breast = test system: HS 578T breast
NCI-H522 lung = test system: NCI-H522 lung
SF-268 CNS = test system: SF-268 CNS
HCT-15 colon = test system: HCT-15 colon
OVCAR-4 ovarian = test system: OVCAR-4 ovarian
KM12 colon = test system: KM12 colon
SW-620 colon = test system: SW-620 colon
EKVX NSCLC = test system: EKVX NSCLC
OVCAR-8 ovarian = test system: OVCAR-8 ovarian
BT-549 breast = test system: BT-549 breast
SK-MEL-28 melanoma = test system: SK-MEL-28 melanoma
PC-3 prostate = test system: PC-3 prostate
CAKI-1 renal = test system: CAKI-1 renal
SK-OV-3 ovarian = test system: SK-OV-3 ovarian
MALME-3M melanoma = test system: MALME-3M melanoma
NCI-H460 NSCLC = test system: NCI-H460 NSCLC
UACC-257 melanoma = test system: UACC-257 melanoma
SN12C renal = test system: SN12C renal

Compound: CN1CCN(C(=O)COc2ccc(C34CC5CC(CC(C5)C3)C4)cc2)CC1
- GI50 (OVCAR-3 ovarian): 7.07 µM
- TGI (OVCAR-3 ovarian): 19.7 µM
- GI50 (T-47D breast): 2660 nM
- TGI (T-47D breast): 10.6 µM
- GI50 (SF-295 CNS): 2850 nM
- TGI (SF-295 CNS): 8.18 µM
- GI50 (MDA-MB-435 melanoma): 3.94 µM
- TGI (MDA-MB-435 melanoma): 13.4 µM
- GI50 (K-562 leukemia): 1640 nM
- TGI (K-562 leukemia): 3.17 µM
- GI50 (OVCAR-5 ovarian): 5.11 µM
- TGI (OVCAR-5 ovarian): 16.6 µM
- GI50 (MCF7 breast): 2080 nM
- TGI (MCF7 breast): 6.06 µM
- GI50 (UACC-62 melanoma): 1810 nM
- TGI (UACC-62 melanoma): 3.32 µM
- GI50 (COLO 205 colon): 1790 nM
- TGI (COLO 205 colon): 3.21 µM
- GI50 (IGROV1 ovarian): 12.7 µM
- TGI (IGROV1 ovarian): 25.3 µM
- GI50 (HL-60(TB) leukemia): 1800 nM
- TGI (HL-60(TB) leukemia): 3.21 µM
- GI50 (HT29 colon): 1720 nM
- TGI (HT29 colon): 3.31 µM
- GI50 (HOP-62 NSCLC): 4.84 µM
- TGI (HOP-62 NSCLC): 16.5 µM
- GI50 (SNB-75 CNS): 11.9 µM
- TGI (SNB-75 CNS): 24.3 µM
- GI50 (HCC-2998 colon): 1560 nM
- TGI (HCC-2998 colon): 3.11 µM
- GI50 (ACHN renal): 7.11 µM
- TGI (ACHN renal): 19.6 µM
- GI50 (UO-31 renal): 11.3 µM
- TGI (UO-31 renal): 23.9 µM
- GI50 (A498 renal): 1620 nM
- TGI (A498 renal): 3.12 µM
- GI50 (NCI-H226 lung): 6.3 µM
- TGI (NCI-H226 lung): 19.3 µM
- GI50 (RPMI-8226 leukemia): 1700 nM
- TGI (RPMI-8226 leukemia): 3.22 µM
- GI50 (M14 melanoma): 1870 nM
- TGI (M14 melanoma): 3.41 µM
- GI50 (MDA-MB-468 breast): 1930 nM
- TGI (MDA-MB-468 breast): 3.7 µM
- GI50 (MDA-MB-231 breast): 6.09 µM
- TGI (MDA-MB-231 breast): 18.5 µM
- GI50 (LOX IMVI melanoma): 2310 nM
- TGI (LOX IMVI melanoma): 5.31 µM
- GI50 (NCI-H322M lung): 3.81 µM
- TGI (NCI-H322M lung): 13.5 µM
- GI50 ([…]-0 renal): 1740 nM
- TGI (786-0 renal): 3.24 µM
- GI50 (SF-539 CNS): 3.98 µM
- TGI (SF-539 CNS): 13.8 µM
- GI50 (RXF 393 renal): 1850 nM
- TGI (RXF 393 renal): 4.12 µM
- GI50 (TK-10 renal): 9.41 µM
- TGI (TK-10 renal): 21.3 µM
- GI50 (SR leukemia): 1680 nM
- TGI (SR leukemia): 3.08 µM
- GI50 (SK-MEL-5 melanoma): 1850 nM
- TGI (SK-MEL-5 melanoma): 3.37 µM
- GI50 (CCRF-CEM leukemia): 2030 nM
- TGI (CCRF-CEM leukemia): 4.43 µM
- GI50 (A549 NSCLC): 5.49 µM
- TGI (A549 NSCLC): 17.8 µM
- GI50 (MOLT-4 leukemia): 1790 nM
- TGI (MOLT-4 leukemia): 4.27 µM
- GI50 (HOP-92 NSCLC): 3.58 µM
- TGI (HOP-92 NSCLC): 15.7 µM
- GI50 (SNB-19 CNS): 10.5 µM
- TGI (SNB-19 CNS): 22.3 µM
- GI50 (NCI/ADR-RES ovarian): 7.51 µM
- TGI (NCI/ADR-RES ovarian): 20.1 µM
- GI50 (DU-145 prostate): 12.1 µM
- TGI (DU-145 prostate): 24.6 µM
- GI50 (NCI-H23 lung): 4.5 µM
- TGI (NCI-H23 lung): 15.9 µM
- GI50 (HS 578T breast): 3.17 µM
- TGI (HS 578T breast): 10.6 µM
- GI50 (NCI-H522 lung): 8.25 µM
- TGI (NCI-H522 lung): 20.5 µM
- GI50 (SF-268 CNS): 4.74 µM
- TGI (SF-268 CNS): 16.2 µM
- GI50 (HCT-15 colon): 1840 nM
- TGI (HCT-15 colon): 3.37 µM
- GI50 (OVCAR-4 ovarian): 8.56 µM
- TGI (OVCAR-4 ovarian): 20.7 µM
- GI50 (KM12 colon): 2180 nM
- TGI (KM12 colon): 4.77 µM
- GI50 (SW-620 colon): 1780 nM
- TGI (SW-620 colon): 3.31 µM
- GI50 (EKVX NSCLC): 11.4 µM
- TGI (EKVX NSCLC): 23.6 µM
- GI50 (OVCAR-8 ovarian): 10.3 µM
- TGI (OVCAR-8 ovarian): 22.1 µM
- GI50 (BT-549 breast): 3.48 µM
- TGI (BT-549 breast): 16 µM
- GI50 (SK-MEL-28 melanoma): 1740 nM
- TGI (SK-MEL-28 melanoma): 3.19 µM
- GI50 (PC-3 prostate): 8.05 µM
- TGI (PC-3 prostate): 20.6 µM
- GI50 (CAKI-1 renal): 2220 nM
- TGI (CAKI-1 renal): 4.56 µM
- GI50 (SK-OV-3 ovarian): 7.12 µM
- TGI (SK-OV-3 ovarian): 19.8 µM
- GI50 (MALME-3M melanoma): 1700 nM
- TGI (MALME-3M melanoma): 3.19 µM
- GI50 (NCI-H460 NSCLC): 2480 nM
- TGI (NCI-H460 NSCLC): 5.79 µM
- GI50 (UACC-257 melanoma): 2190 nM
- TGI (UACC-257 melanoma): 4.32 µM
- GI50 (SN12C renal): 11.8 µM
- TGI (SN12C renal): 24.2 µM
